# Reference: patent US20120064219A1, “EXTRUDED PARTICLES” (Firmenich SA, priority 2009, published 2012)
# Peptide text beside a SMILES is read from it.
# Test: LC-MS analysis of saliva samples of panelists chewing the gums
# Assay type: in vivo
# Method: 3 panelists were given various samples of chewing gum prepared above and instructed to chew the gums for 60 minutes. At various intervals, a saliva sample was taken from each panelist, diluted 50 times in water and then analysed by standard LC-MS to confirm the amount of sweetening component remaining in the mouth.
# [1] = encapsulated form in chewing gum
"effect of encapsulation on the release profile compared to the unencapsulated form (chewing gum, saliva)",release profile in saliva (in words) (unencapsulated form in chewing gum),SMILES,release profile in saliva (in words) [1]
little effect,–,CC1=CC(=O)[N-]S(=O)(=O)O1.[K+] [Acesulfame K],–
–,–,COC(=O)[C@H](Cc1ccccc1)NC(=O)[C@@H](N)CC(=O)O [aspartame] (H-Asp-Phe-OMe),releasing at a surprisingly stable rate for up to 40 minutes
–,diminishes rapidly almost immediately,OC[C@H]1O[C@H](O[C@]2(CCl)O[C@H](CCl)[C@@H](O)[C@@H]2O)[C@H](O)[C@@H](O)[C@H]1Cl [sucralose],remains remarkably stable for at least until 20 minutes
